Data published in patent US11406642B2, “DNP and DNP prodrug treatment of neuromuscular, neurodegenerative, autoimmune, developmental, traumatic brain injury, concussion, dry eye disease, hearing loss and/or metabolic diseases” (priority 2016, dated 2022).
“Also recorded” adds a separate entry of the source.

Assays:
[1] = Stability of II-38 in phosphate buffer, pH 7.4; format: physicochemical; conditions: pH 7.4, 37° C., 5% DMSO, within 8 h
Protocol: pH: Stability in aqueous buffers (37° C., pHs 1.2 and 7.4)
(§1) HPLC analysis was carried out on an Agilent 1200 Infinity Series Quatpump, equipped with a photodiode array detector and a computer integrating apparatus. An Inertsil ODS-3 column, C18, 5 μm, 4.6×50 mm (GL Science Inc. Japan) protected with a guard column: Alltima C18, 5 μm, 4.6×7.5 mm (Grace Discovery Sciences, IL, USA) was used as the stationary phase. An isocratic method with a mobile phase consisting of water/acetonitrile (70:30) containing 0.05% formic acid in each was used. A flow rate of 0.9 mL/min was used and detection was carried out at a UV wavelength of 250 nm.
Formulation of II-38 in phosphate buffer (PB): to formulate 1 mg/mL of II-38 in PB, 2.6 mg of II-38 was formulated in 0.13 mL of DMSO (i.e. 5%) and added slowly and gradually to a total volume of 2.47 mL of preheated PB (Table 2) in a Franz cell diffusion chamber preheated to 37° C. The solution was mixed for 30 sec every half an hour using magnetic stirrer. Samples of 20 μL (20 ug/mL of II-38) were collected at 0, 0.5, 1, 2, 4, 6 and 8 h. Each sample was mixed with acetonitrile QS to 1 mL, vortex-mixed for 30 sec and centrifuged at 10,000 rpm at room temp. A volume of 10 μL of the supernatant was injected into the HPLC spectrometer.

[2] = Stability in simulated intestinal fluid (SIF), pH 6.8; format: in vitro ADME; conditions: pH 6.8, 37° C.
Protocol: GI: Stability in simulated intestinal fluid (USP, 37° C.)
as §1
Formulation of II-38 in SIF buffer, pH 6.8: to formulate 1 mg/mL of II-38 in SIF, 2.6 mg of II-38 was dissolved in 0.13 mL of DMSO (i.e. 5%) and titrated slowly and gradually to a total volume of 2.47 mL of preheated SIF (Table 4) in a cell diffusion chamber preheated to 37° C. The solution was mixed for 30 sec every half an hour using magnetic stirrer. Samples of 20 μL (20 μg/mL of II-38) were collected at 0, 0.5, 1, 2, 4, 6 and 8 h (FIGS. 12A and 12B). Each sample was mixed with acetonitrile QS to 1 mL, vortex-mixed for 30 sec and centrifuged at 10,000 rpm at room temp. A volume of 10 μL of the supernatant was injected into the HPLC spectrometer (FIG. 11).

[3] = test system: ion channels; assay: Inhibition of ion channels
Excerpt: Overt reactive oxygen species (ROSs) can be produced due to noise and certain ototoxic drugs that can damage the hair cells of the ear, resulting in either temporary or permanent hearing loss. Exposure to blast waves and continuous noise not only damaged the inner ear, but caused cell death in the hippocampus, suppressed neurogenesis and impaired memory function. Aging as well can manifest in mitochondrial dysfunction leading to hearing loss. It is emerging that attempts to treat hearing loss by targeting downstream issues is not very effective. In one embodiment, the compositions and methods of the invention relate to targeting oxidative stress upstream at the mitochondria that may be causative for many disorders. There have been a variety of attempts to lower cellular stress, such as administering anti-oxidants, however these drugs have limited tissue penetration into the brain and lower ROSs after they have been formed. […] While not being bound to theory, it is postulated that DNP modulates the mitochondrial membrane potential having a significant impact at preventing ROS formation in isolated mitochondria and in the treated wildtype mice. DNP treatment 3-hours post-ischemia reduced cerebral infarct volume 40% by protecting the penumbra or “threaten tissue” and could provide similar benefits after a blast to protect inner hair cells from eminent cell death. […]

[4] = test system: dopaminergic neurons; assay: Parkinson model using 6-OHDA; format: in vivo; conditions: chronic treatment
Excerpt: In one embodiment, the invention provides compositions and methods for treating neurodegenerative diseases such as Alzheimer's disease, Parkinson, and Huntington's disease. It is believed that the complete lack of historic success is due to most pharmaceutical industries focusing on a downstream event, such as plaques/tangles, whereas the issue is likely upstream at the mitochondria causing high cellular stress.

[5] = test system: spiny neurons; assay: Model of Huntington's disease; format: in vivo; conditions: treatment for over 17-weeks
Excerpt: In one embodiment, the invention provides compositions and methods for treating Huntington's disease. […] DNP should prevent muscle loss since it reduces mitochondrial osmotic swelling by reducing intra-mitochondrial calcium concentration and inducing BDNF, which is a myokine (muscle protectant) outside of the brain.

| Structure (SMILES) | hydrolysis / stability in phosphate buffer [1] | stability in SIF [2] | inhibition to ion channels [3] | protection of dopaminergic neurons [4] | effect on spiny neurons [5] |
| --- | --- | --- | --- | --- | --- |
| O=C(Oc1ccc([N+](=O)[O-])cc1[N+](=O)[O-])N1CCOCC1 [II-38, 2,4-Dinitrophenyl morpholine-4-carboxylate] | no significant hydrolysis; also recorded: did not show significant hydrolysis; also recorded: no evidence of 2,4-DNP formation | stable | – | – | – |
| O=[N+]([O-])c1ccc(O)c([N+](=O)[O-])c1 [2,4-DNP, 2,4-dinitrophenol] | – | – | no inhibition | positive protective effect | protection on the spiny neurons |
